Experimental data published in patent US20250049968A1, “THERAPEUTIC AND IMAGING AGENTS FOR TARGETING MYOCARDIAL TISSUE” (The Board of Regents of the University of Oklahoma, priority 2023, published 2025).

Columns and labels:
[1] = clinical PK profile; cited from earlier work
[2] = tested on: MI hearts; assay: Whole-body PET imaging of ^18F-OM for detection of MI in mice; type: in vivo; conditions: for cardiac uptake in MI hearts compared to sham/normal hearts, PET: occluded left anterior descending coronary artery model
Procedure: Approximately 80 uCi of ^18F-OM was injected and images were acquired after 4 h. […] In another non-limiting embodiment of the present disclosure, the OM or OM-liposomes can be labeled with ^18F radionuclide for PET imaging of myocardial infarction as an infarct-avid radiotracer. Unlike radiotracers for perfusion imaging, infarct-avid agents are not taken up by normal myocardium and only accumulate at the site of acute infarct. Therefore, infarct radiotracers produce images with less background and improved signal-to-noise ratio. Currently, no infarct-avid radiotracer is available for clinical PET imaging of infarct tissue. […] After successful labeling, we investigated ^18F-OM for detection of MI in a mouse model of occluded anterior descending branch of the left coronary artery. After imaging, the mice were euthanized to collect various organs for counting of tissue-associated radioactivity.

[3] = approx. 80 uCi, images after 4 h, FIG. 6

Structure (SMILES)	mean apparent terminal elimination half-life (t1/2) [1]	accumulation in sham hearts, PET ([2]; FIG. 7)	background signal from accumulation in liver and lung tissue ([2]; PET, mice)	detection of surgical MI, target/non-target ratio ([2]; PET, mice, FIG. 6)	accumulation in hearts of MI mice, whole-body PET [2, 3]	accumulation in normal hearts of control mice, whole-body PET [2, 3]	cardiac uptake in MI hearts compared to sham/normal hearts, PET ([2]; FIG. 7)	cardiac uptake in MI hearts compared to sham/normal hearts, PET ([2]; FIG. 7, listed as [18F]-OMA)
COC(=O)N1CCN(Cc2cccc(NC(=O)Nc3ccc(C)nc3)c2F)CC1 [OM, omecamtiv mecarbil]	18.5 h	–	–	–	–	–	–	–
COC(=O)N1CCN(Cc2cccc(NC(=O)Nc3ccc(C)nc3)c2OCCF)CC1 [^18F-OM, Methyl 4-(2-(2-fluoroethoxy)-3-(3-(6-methylpyridin-3-yl)ureido)benzyl)piperazine-1-carboxylate]	–	accumulated significant	lack of background signal	high target/non-target ratio	high accumulation	no visible accumulation	significantly more pronounced	distinctly high uptake
